# Reference: patent US11712414B2, “Oral pharmaceutical composition for preventing or treating dry eye syndrome comprising rebamipide or a prodrug thereof” (SAMJIN PHARMACEUTICAL CO., LTD., priority 2013, dated 2023)
# Test system: animal model of dry eye syndrome
# Test: Efficacy analysis of drugs using an animal model of dry eye syndrome (overall, FIGS. 1 to 15)
# Type: in vivo, C57BL/6 mice
# Conditions: oral administration, overall statement
# Source text: Experimental Example 1: Efficacy Analysis of Drugs Using an Animal Model of Dry Eye Syndrome
# <1-1> Construction of an Animal Model of Dry Eye Syndrome
# Eight-week old male C57BL/6 mice (Charles River laboratories) were quarantined for one week and divided into several groups of eight animals evenly according to their average body weight and standard deviation.
# For experimental groups (administered with Examples […]), dry eye syndrome was induced by subcutaneous injection of scopolamine (2.5 mg/mL, Sigma-Aldrich) for 10 days with exposure to air draft (25-40% relative humidity) for 18 hours per day. Then, mice were orally administered with the suspensions of Examples 1 to 29, twice a day for total 10 days, respectively.
# Meanwhile, for a normal group, neither the drug nor the vehicle was administered to normal mice. And, for a control group, the vehicle was administered to the mice with dry eye syndrome.
structure (smiles),measurement,value
"O=C(NC(Cc1cc(=O)[nH]c2ccccc12)C(=O)O)c1ccc(Cl)cc1 (stereo not shown) [Rebamipide, 2-(4-chlorobenzoyl-amino)-3-[2(1H)-quinolon-4-yl]propionic acid]",therapeutic effects on dry eye syndrome,exhibits therapeutic effects on dry eye syndrome
